Earlier results on four molecules are cited in patent US20140308215A1, “ANTIPERSPIRANT COMPOSITIONS AND METHOD FOR REDUCING PERSPIRATION” (Conopco, Inc., d/b/a Unilever, priority 2011, published 2014).

For this series the following is noted: Hildebrand Solubility Parameter of the liquid carrier.
With `CCCCCCCCCCCCCCCC` [Hexadecane], the HSP is 16.36 (MPa)^0.5.

For `CCCCCCCCCCCCCC(=O)OC(C)C` [Isopropyl myristate], the HSP is on record as 16.40 (MPa)^0.5.

On to `CCCCCCCCCCC(CO)CCCCCCCC` (stereo not shown) [Octyl dodecanol], for which the HSP is 18.25 (MPa)^0.5.

`CCCCC(CC)C(=O)OCC(COC(=O)C(CC)CCCC)OC(=O)C(CC)CCCC` (stereo not shown) [Triethylhexanoin]: the HSP is listed as 18.02 (MPa)^0.5.
